Results taken from PMC3009956, “Human immunome, bioinformatic analyses using HLA supermotifs and the parasite genome, binding assays, studies of human T cell responses, and immunization of HLA-A*1101 transgenic mice including novel adjuvants provide a foundation for HLA-A03 restricted CD8^+T cell epitope based, adjuvanted vaccine …” (Immunome Research, 2010).
Where no end group is shown, it is not given here.

Experiments:
HLA-A*0301 = HLA-A*0301 (Homo sapiens, UniProt P04439); assay: MHC-peptide binding assay, inhibition of binding of radiolabeled standard peptide; conditions: read-out: MHC binding affinity HLA-A*0301
Text: (§1) Assays were as described.

HLA-A*1101 = HLA-A*1101 (Homo sapiens, UniProt P04439, A114D/D185E/E176A/F33Y/L180Q/S129P/T187R); assay: as above; conditions: unit not given in Table 1 (same values in Table 3 as IC50 nM), newly identified peptides, read-out: Affinity HLA-A*1101
Text: as §1

HLA-A*3001 = HLA-A*3001 (Homo sapiens, UniProt P04439, D140H/D185E/E176W/F33S/G80R/H175R/K168Q/R138E/R41S); assay: as above; conditions: read-out: MHC binding affinity HLA-A*3001
Sequence of HLA-A*3001 (P04439 25-365 limits assumed, stated change not applied): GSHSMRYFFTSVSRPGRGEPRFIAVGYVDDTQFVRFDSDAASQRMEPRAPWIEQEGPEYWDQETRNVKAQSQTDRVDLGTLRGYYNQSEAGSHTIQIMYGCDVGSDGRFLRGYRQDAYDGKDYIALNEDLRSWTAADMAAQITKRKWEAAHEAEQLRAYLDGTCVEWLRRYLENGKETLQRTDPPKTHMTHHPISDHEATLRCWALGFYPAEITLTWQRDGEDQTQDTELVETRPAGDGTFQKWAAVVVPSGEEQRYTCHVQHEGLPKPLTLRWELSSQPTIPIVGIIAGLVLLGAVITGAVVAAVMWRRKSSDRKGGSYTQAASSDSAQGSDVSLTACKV
Text: as §1

HLA-A*3101 = HLA-A*3101 (Homo sapiens, UniProt P04439, A270S/D185E/E176V/E277Q/F33T/G231S/G80R/H175R/I121M/I218V/I322F/K168Q/L300P/L318F/M331R/P217A/Q94H/R138Q/T323A/T345S/T97I/V358M); assay: as above; conditions: read-out: MHC binding affinity HLA-A*3101
Text: as §1

HLA-A*3301 = HLA-A*3301 (Homo sapiens, UniProt P04439, A270S/D185E/E176V/E277Q/E87N/F33T/G231S/H175R/I121M/I218V/I322F/K168Q/K210R/L300P/L318F/M331R/P217A/Q86R/Q94H/R138Q/T323A/T345S/T97I/V358M/Y195H); assay: as above; conditions: read-out: MHC binding affinity HLA-A*3301
Text: as §1

HLA-A*6801 = HLA-A*6801 (Homo sapiens, UniProt P04439, A269V/D185E/E176V/E277Q/E87N/F33Y/G231S/I121M/I166T/I218V/L180W/L300P/L318F/N151K/P208A/P217A/Q86R/R169H/T345S); assay: as above; conditions: read-out: MHC binding affinity HLA-A*6801
Text: as §1

[1] = system: splenocytes of HLA-A*1101 transgenic mice; assay: Ex vivo IFN-γ ELISpot assay with splenocytes of immunized HLA-A*1101 transgenic mice; format: in vivo; conditions: Figure 3b; mice immunized with mixture of peptides and adjuvants compared with LpKS9-AM9-RS9
Method: To evaluate peptide immunogenicity, HLA-A*1101 transgenic mice were inoculated subcutaneously (s.c.) at the base of the tail using a 30-gauge needle with single peptides or a mixture of CD8^+ T cell peptides (50 μg of each peptide per mouse) and PADRE ([…]) emulsified in 20 μg of GLA-SE (TLR4 agonist) with or without Pam2Cys. Pam2Cys concentration was 5 mg/ml. For immunization with lipopeptides, HLA-A*1101 mice received 20 nmol lipopeptide dissolved in PBS or emulsified in GLA-SE. As controls, mice were injected with PBS or PBS/GLA-SE. For the lipopeptide immunizations, the mice were vaccinated twice at intervals of three weeks. For the peptide immunizations, mice were immunized three times at intervals of two weeks. For challenge studies, mice were immunized with peptide emulsions and challenged intraperitoneally (i.p.) 14 days post-immunization using 10,000 Type II parasites.
Mice were euthanized 7 to 14 days after immunization. […]
PBMC were obtained, HLA haplotype was determined, and they were processed and cryopreserved as described. […] Results were expressed as number of spot forming cells (SFCs) per 10^6 PBMCs or per 10^6 murine splenocytes.
Two-tailed P values < 0.05 were considered statistically significant. […] The experiment in Figure 7b determined immune response and imaged mice in parallel.

Sequence | IC50 (HLA-A*0301) [nM] | IC50 (HLA-A*1101) [nM] | IC50 (HLA-A*3001) [nM] | IC50 (HLA-A*3101) [nM] | IC50 (HLA-A*3301) [nM] | IC50 (HLA-A*6801) [nM] | IFN-γ production on stimulation of spleen cells by the peptide [1]
AVVSLLRLLK | 17 | 34 | 8.1 | 1300 | 1100 | 94 | 
RSFKDLLKK |  |  |  |  |  |  | not significant
SSAYVFSVK | 12 | 10 | 1830 | 97 | 181 | 2.1 | 
STFWPCLLR | 22 | 10 | 1270 | 1.2 | 3.4 | 0.97 | 
